From patent publication US12172990B2 (Constellation Pharmaceuticals, Inc., priority 2018, dated 2024)

Legend:
full length human TREX1 = full length human TREX1 (Homo sapiens (Human), UniProt Q9NSU2); assay: TREX1 Biochemical Assay (fluorescence assay measuring degradation of dsDNA substrate); conditions: 150 pM TREX1, 60 nM dsDNA substrate, 25 minutes at room temperature
Summary of the method: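 His-Tev-tagged full-length human TREX1 expressed in E. coli, 150 pM final, with 60 nM TEX615/quencher-labelled 9-mer dsDNA in Tris pH 7.4, NaCl, DTT, BSA, Tween-20, MgCl2 and 1.0% DMSO; 25 min at room temperature, EDTA-quenched. Fluorescence 615 nm (excitation 570 nm); 10-point IC50 by four-parameter fit against pre-quenched and no-inhibitor controls.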

[1] = molecular target: human TREX2 (residues M44-A279) (Homo sapiens (Human), UniProt Q9BQ50); assay: TREX2 Biochemical Assay (fluorescence assay measuring degradation of dsDNA substrate); conditions: 2.5 nM TREX2, 60 nM dsDNA substrate, 25 minutes at room temperature
Summary of the method: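 Final conditions: 2.5 nM His-Tev-tagged TREX2 (E. coli-expressed), 60 nM fluorophore/quencher-labelled dsDNA, 50 mM Tris pH 7.4, 150 mM NaCl, 100 mM MgCl2, 1% DMSO; 10-point compound dose-response. Incubated 25 min at room temperature, then EDTA-quenched; fluorescence read at ex 570/em 615 nm. IC50 from four-parameter fit against pre-quenched and no-inhibitor controls.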

full length human TREX1, sequence (Q9NSU2 whole entry): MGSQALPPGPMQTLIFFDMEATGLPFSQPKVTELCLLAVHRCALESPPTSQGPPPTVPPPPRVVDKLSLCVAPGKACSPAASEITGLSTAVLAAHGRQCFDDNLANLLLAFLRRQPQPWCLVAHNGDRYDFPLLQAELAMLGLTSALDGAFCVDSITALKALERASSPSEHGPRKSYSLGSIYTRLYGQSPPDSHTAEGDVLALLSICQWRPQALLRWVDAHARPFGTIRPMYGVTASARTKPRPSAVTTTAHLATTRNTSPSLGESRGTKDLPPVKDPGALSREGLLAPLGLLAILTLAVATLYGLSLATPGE
human TREX2 (residues M44-A279), sequence (Q9BQ50 whole entry, the tested form may be a part): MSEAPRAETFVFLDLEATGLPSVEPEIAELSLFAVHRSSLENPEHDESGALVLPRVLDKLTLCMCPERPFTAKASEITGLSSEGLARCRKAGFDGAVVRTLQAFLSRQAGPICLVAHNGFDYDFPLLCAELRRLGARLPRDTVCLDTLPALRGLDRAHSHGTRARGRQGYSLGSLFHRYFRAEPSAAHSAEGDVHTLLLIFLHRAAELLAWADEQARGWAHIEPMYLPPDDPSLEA

Structure (SMILES) | IC50 (full length human TREX1) [nM] | IC50 [1] [nM]
Cn1c(C2CCCN(CC(F)(F)F)C2)nc(C(=O)Nc2cnoc2)c(O)c1=O (centres unmarked) [Example 98, 5-hydroxy-N-(isoxazol-4-yl)-1-methyl-6-oxo-2-(1-(2,2,2-trifluoroethyl)piperidin-3-yl)-1,6-dihydropyrimidine-4-carboxamide] | 100 to 1000 | 10000 to 100000
Cn1c(N2CCN(C(=O)c3ccccc3)CC2)nc(C(=O)Nc2cnoc2)c(O)c1=O [Example 100, 2-(4-benzoylpiperazin-1-yl)-5-hydroxy-N-(isoxazol-4-yl)-1-methyl-6-oxo-1,6-dihydropyrimidine-4-carboxamide] | 100 to 1000 | 10000 to 100000
Cn1c(N2CCC[C@H](c3ccccn3)C2)nc(C(=O)Nc2cnoc2)c(O)c1=O [Example 101, (S)-5-hydroxy-N-(isoxazol-4-yl)-1-methyl-6-oxo-2-(3-(pyridin-2-yl)piperidin-1-yl)-1,6-dihydropyrimidine-4-carboxamide] | 100 to 1000 | 10000 to 100000
Cn1c(N2CCC[C@@H]2c2cccnc2)nc(C(=O)Nc2cnoc2)c(O)c1=O [Example 102, (R)-5-hydroxy-N-(isoxazol-4-yl)-1-methyl-6-oxo-2-(2-(pyridin-3-yl)pyrrolidin-1-yl)-1,6-dihydropyrimidine-4-carboxamide] | 100 to 1000 | 10000 to 100000
Cn1c(N2CCC[C@H]2c2ccncc2)nc(C(=O)Nc2cnoc2)c(O)c1=O [Example 103, (S)-5-hydroxy-N-(isoxazol-4-yl)-1-methyl-6-oxo-2-(2-(pyridin-4-yl)pyrrolidin-1-yl)-1,6-dihydropyrimidine-4-carboxamide] | 100 to 1000 | 10000 to 100000
Cn1c([C@H]2CCCCN2CCO)nc(C(=O)Nc2cnoc2)c(O)c1=O [Example 104, (R)-5-hydroxy-2-(1-(2-hydroxyethyl)piperidin-2-yl)-N-(isoxazol-4-yl)-1-methyl-6-oxo-1,6-dihydropyrimidine-4-carboxamide] | 1000 to 10000 | > 100000
Cn1c(N2CCCC[C@H]2CCO)nc(C(=O)Nc2cnoc2)c(O)c1=O [Example 106, (S)-5-hydroxy-2-(2-(2-hydroxyethyl)piperidin-1-yl)-N-(isoxazol-4-yl)-1-methyl-6-oxo-1,6-dihydropyrimidine-4-carboxamide] | 100 to 1000 | 10000 to 100000
Cn1c(N2CCCC[C@@H]2CCO)nc(C(=O)Nc2cnoc2)c(O)c1=O [Example 107, (R)-5-hydroxy-2-(2-(2-hydroxyethyl)piperidin-1-yl)-N-(isoxazol-4-yl)-1-methyl-6-oxo-1,6-dihydropyrimidine-4-carboxamide] | < 100 | 1000 to 10000
Cn1c(N2CC[C@H](c3ccccc3)C2)nc(C(=O)Nc2cnoc2)c(O)c1=O [Example 108, (R)-5-hydroxy-N-(isoxazol-4-yl)-1-methyl-6-oxo-2-(3-phenylpyrrolidin-1-yl)-1,6-dihydropyrimidine-4-carboxamide] | < 100 | 10000 to 100000
Cn1c(N2CC[C@@H](c3ccccc3)C2)nc(C(=O)Nc2cnoc2)c(O)c1=O [Example 109, (S)-5-hydroxy-N-(isoxazol-4-yl)-1-methyl-6-oxo-2-(3-phenylpyrrolidin-1-yl)-1,6-dihydropyrimidine-4-carboxamide] | < 100 | 10000 to 100000
CN(C)C(=O)[C@H]1CCCN1c1nc(C(=O)Nc2cnoc2)c(O)c(=O)n1C [Example 110, (R)-2-(2-(dimethylcarbamoyl)pyrrolidin-1-yl)-5-hydroxy-N-(isoxazol-4-yl)-1-methyl-6-oxo-1,6-dihydropyrimidine-4-carboxamide] | 100 to 1000 | 10000 to 100000
CC(=O)N1CCCN(c2nc(C(=O)Nc3cnoc3)c(O)c(=O)n2C)CC1 [Example 111, 2-(4-acetyl-1,4-diazepan-1-yl)-5-hydroxy-N-(isoxazol-4-yl)-1-methyl-6-oxo-1,6-dihydropyrimidine-4-carboxamide] | 100 to 1000 | 10000 to 100000
Cn1c(N2CCC[C@H]2c2ccccc2)nc(C(=O)Nc2cnoc2)c(O)c1=O [Example 112, (S)-5-hydroxy-N-(isoxazol-4-yl)-1-methyl-6-oxo-2-(2-phenylpyrrolidin-1-yl)-1,6-dihydropyrimidine-4-carboxamide] | < 100 | 1000 to 10000
Cn1c(N2CCC[C@@H]2c2ccccc2)nc(C(=O)Nc2cnoc2)c(O)c1=O [Example 113, (R)-5-hydroxy-N-(isoxazol-4-yl)-1-methyl-6-oxo-2-(2-phenylpyrrolidin-1-yl)-1,6-dihydropyrimidine-4-carboxamide] | < 100 | 1000 to 10000
CC(=O)N1CCN(c2nc(C(=O)Nc3cnoc3)c(O)c(=O)n2C)CC1 [Example 116, 2-(4-acetylpiperazin-1-yl)-5-hydroxy-N-(isoxazol-4-yl)-1-methyl-6-oxo-1,6-dihydropyrimidine-4-carboxamide] | 100 to 1000 | 10000 to 100000
Cn1c(N2CC[C@H](C(N)=O)C2)nc(C(=O)Nc2cnoc2)c(O)c1=O [Example 117, (S)-2-(3-carbamoylpyrrolidin-1-yl)-5-hydroxy-N-(isoxazol-4-yl)-1-methyl-6-oxo-1,6-dihydropyrimidine-4-carboxamide] | 100 to 1000 | 10000 to 100000
Cn1c(N2CC[C@@H](C(N)=O)C2)nc(C(=O)Nc2cnoc2)c(O)c1=O [Example 118, (R)-2-(3-carbamoylpyrrolidin-1-yl)-5-hydroxy-N-(isoxazol-4-yl)-1-methyl-6-oxo-1,6-dihydropyrimidine-4-carboxamide] | < 100 | 10000 to 100000
Cn1c(N2CCC[C@H](C(N)=O)C2)nc(C(=O)Nc2cnoc2)c(O)c1=O [Example 119, (S)-2-(3-carbamoylpiperidin-1-yl)-5-hydroxy-N-(isoxazol-4-yl)-1-methyl-6-oxo-1,6-dihydropyrimidine-4-carboxamide] | 100 to 1000 | 10000 to 100000
Cn1c(Oc2ccccc2)nc(C(=O)Nc2cnoc2)c(O)c1=O [Example 120, 5-hydroxy-N-(isoxazol-4-yl)-1-methyl-6-oxo-2-phenoxy-1,6-dihydropyrimidine-4-carboxamide] | < 100 | 1000 to 10000
Cn1c(OC2CCCCC2)nc(C(=O)Nc2cnoc2)c(O)c1=O [Example 121, 2-(cyclohexyloxy)-5-hydroxy-N-(isoxazol-4-yl)-1-methyl-6-oxo-1,6-dihydropyrimidine-4-carboxamide] | < 100 | 1000 to 10000
Cn1c(N2CC(Oc3ccccc3)C2)nc(C(=O)Nc2cnoc2)c(O)c1=O [Example 122, 5-hydroxy-N-(isoxazol-4-yl)-1-methyl-6-oxo-2-(3-phenoxyazetidin-1-yl)-1,6-dihydropyrimidine-4-carboxamide] | 100 to 1000 | 10000 to 100000
Cn1c(N2CC(OCc3ccccc3)C2)nc(C(=O)Nc2cnoc2)c(O)c1=O [Example 123, 2-(3-(benzyloxy)azetidin-1-yl)-5-hydroxy-N-(isoxazol-4-yl)-1-methyl-6-oxo-1,6-dihydropyrimidine-4-carboxamide] | 100 to 1000 | 10000 to 100000
Cn1c(N2CCC[C@@H]2c2ccccc2Cl)nc(C(=O)Nc2cnoc2)c(O)c1=O [Example 124, (R)-2-(2-(2-chlorophenyl)pyrrolidin-1-yl)-5-hydroxy-N-(isoxazol-4-yl)-1-methyl-6-oxo-1,6-dihydropyrimidine-4-carboxamide] | < 100 | 1000 to 10000
Cn1c(N2CCN(c3ccccn3)C[C@@H]2c2ccccc2Cl)nc(C(=O)Nc2cnoc2)c(O)c1=O [Example 125, (S)-2-(2-(2-chlorophenyl)-4-(pyridin-2-yl)piperazin-1-yl)-5-hydroxy-N-(isoxazol-4-yl)-1-methyl-6-oxo-1,6-dihydropyrimidine-4-carboxamide] | < 100 | < 1000
CC(=O)N1CCN(c2nc(C(=O)Nc3cnoc3)c(O)c(=O)n2C)[C@H](c2ccccc2Cl)C1 [Example 128, (R)-2-(4-acetyl-2-(2-chlorophenyl)piperazin-1-yl)-5-hydroxy-N-(isoxazol-4-yl)-1-methyl-6-oxo-1,6-dihydropyrimidine-4-carboxamide] | < 100 | < 1000
Cn1c(C2CCCN(CCc3ccccc3)C2)nc(C(=O)Nc2cnoc2)c(O)c1=O (centres unmarked) [Example 129, 5-hydroxy-N-(isoxazol-4-yl)-1-methyl-6-oxo-2-(1-phenethylpiperidin-3-yl)-1,6-dihydropyrimidine-4-carboxamide] | > 10000 | > 100000
Cn1c(C2(C)CCCN(C(=O)c3ccc(Cl)c(Cl)c3)C2)nc(C(=O)Nc2cnoc2)c(O)c1=O (centres unmarked) [Example 130, 2-(1-(3,4-dichlorobenzoyl)-3-methylpiperidin-3-yl)-5-hydroxy-N-(isoxazol-4-yl)-1-methyl-6-oxo-1,6-dihydropyrimidine-4-carboxamide] | 100 to 1000 | 1000 to 10000
Cn1c([C@@H]2CCCN(C(=O)c3ccc(Cl)c(Cl)c3)C2)nc(C(=O)Nc2cnoc2)c(O)c1=O [Example 131, (R)-2-(1-(3,4-dichlorobenzoyl)piperidin-3-yl)-5-hydroxy-N-(isoxazol-4-yl)-1-methyl-6-oxo-1,6-dihydropyrimidine-4-carboxamide] | < 100 | < 1000
